The METLIN SMRT retention time set (Domingo-Almenara et al. 2019)

Experiment: gradient 5% acetonitrile 3 min, to 50% in 2 min, to 85% in 15 min, held 3 min, 100 µL/min
Details: column: Zorbax Extend-C18 2.1 x 50 mm; eluents: water / acetonitrile, 0.1% formic acid
Summary of the method: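 The mobile phases were water and acetonitrile, each with 0.1% formic acid, pumped at 100 μL/min through a Zorbax Extend-C18 column (2.1 × 50 mm, 1.8 μm). Pure standards were injected as mixtures of ~100 molecules and detected by a quadrupole time-of-flight mass spectrometer in positive and negative ionization mode. Retention time came from computationally picked adduct peaks, each inspected by hand.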

| SMILES | RP-LC retention time [s] |
| --- | --- |
| Cc1cc(C(=O)NCc2cccnc2)c2cc(Br)ccc2n1 | 588 |
| Cc1noc([C@]23CN(CCc4ccccc4)CC[C@H]2CN(CCc2ccccc2)C3)n1 | 573 |
| Cc1ccc(-c2nnc(Cc3nc(-c4cccc(F)c4)no3)o2)cc1F | 1110 |
| O=C(NCc1ccc(F)cc1F)C1CCN(c2cncnc2N2CCOCC2)CC1 | 618 |
| CCc1cc(C(=O)Nc2cccc(F)c2)nc2ccnn12 | 998 |
| CC1=C(c2ccc(C)cc2)S(=O)(=O)N=C1N1CCCN(C(=O)Cn2ccnc2C)CC1 | 616 |
| O=C(c1cn2c(n1)CSCC2)N1CCC(Cc2ccccc2)CC1 | 720 |
| O=C(NCCc1ccccn1)C1CCN(c2cnn(Cc3ccccc3)c(=O)c2)CC1 | 594 |
| CNC(=O)c1nc(C(C)(C)NC(=O)c2ccco2)nc2c1OCO2 | 623 |
| O=C(CSc1ncc(-c2cccc(Cl)c2)o1)Nc1ccccc1C(F)(F)F | 1070 |
| Cc1cccc(NC(=O)N2CCc3c(c(-c4nnc(-c5ccccc5Cl)o4)nn3C)C2)c1 | 902 |
| O=C(CN1C(=O)c2ccccc2C1=O)OCc1nc2ccccc2s1 | 840 |
| O=C(C1CCN(c2cncnc2N2CCCC2)CC1)N1CCN(c2ccc(F)cc2)CC1 | 670 |
| O=C(NCc1cccnc1)C1(CCO)CCN(c2ncccn2)C1 (stereo not drawn) | 515 |
| Cc1csc(-c2cc(S(=O)(=O)N3CCCC3)cn2CC(=O)N2CCCCC2)n1 | 875 |
| CCN1C(=O)c2cccnc2Sc2cc(NC(=O)CCc3cccc(OC)c3)ccc21 | 855 |
| CCNC(=O)Cn1c(=O)c2cnc(-c3ccc(Cl)cc3)nc2n(C)c1=O | 927 |
| COC(=O)CNC(=O)NCCn1c(-c2ccc(F)cc2)nc2ccccc21 | 696 |
| CCc1ccccc1NC(=O)c1cc(CC)n2nccc2n1 | 1150 |
| CCC(C)n1c(=O)c2ccccc2n(Cc2nc(-c3ccc(Br)cc3)no2)c1=O (stereo not drawn) | 1320 |
| CCCc1noc(-c2ccc(-n3cnc(C(=O)NC4CCCC4)c3)nc2)n1 | 915 |

| SMILES | RP-LC retention time [s] |
| --- | --- |
| COc1ccc(NC(=O)N2CCC3(C2)C(=O)N(C)c2ccccc23)c(OC)c1 (stereo not drawn) | 776 |
| O=C(Nc1ccc(Br)cc1F)C1CCCN(c2cnc3ccccc3n2)C1 (stereo not drawn) | 1070 |
| Cc1ccc(N2CC(c3nc(-c4cccs4)no3)CC2=O)cc1 (stereo not drawn) | 877 |
| COc1ccc(-c2nc3cnccn3c2NCCC(=O)N2CCN(C(C)C)CC2)cc1 | 565 |
| Cc1ccc(NC(=O)Nc2cnn(-c3ncc(N4CCCC4)cn3)c2)c(Cl)c1 | 844 |
| O=C(NCCc1ccc(Cl)cc1)C(=O)Nc1ccc(F)cc1F | 971 |
| COC(=O)[C@H]1[C@H]2C[C@@H]3c4[nH]c5cc(OC)ccc5c4CCN3C[C@H]2C[C@@H](OC(=O)CC(C)=O)[C@@H]1OC | 731 |
| O=C(c1cn2nc(Cl)ccc2n1)N(Cc1ccccc1)Cc1ccco1 | 974 |
| c1nc(N2CCOCC2)c2cn[nH]c2n1 | 340 |
| CCN(CC)S(=O)(=O)c1cc(-c2nnc(-c3ccc(OC)c(OC)c3)o2)ccc1Cl | 1010 |
| CCN1CCCn2nc(C3CCN(C(=O)c4cccc(C(F)(F)F)c4)CC3)cc2C1=O | 785 |
| CCC(=O)NCc1nc2c(n1CC)CN(C(=O)c1ccc(Cl)cc1)CC2 | 529 |
| Nc1cccc(-c2nc3ccccc3[nH]2)c1 | 532 |
| COc1cc2c(Nc3ccc(Br)cc3F)ncnc2cc1OCC1CCN(C)CC1 | 644 |
| N#Cc1cccc(NC(=O)CSc2nc(N3CCc4ccccc4C3)nc3ccccc23)c1 | 862 |
| CN1CCN(C(=O)C2CCN(S(=O)(=O)c3ccc4c(c3)sc(=O)n4C)CC2)CC1 | 596 |
| COc1cccc(CN2CCc3nn(CC4CC4)c(=O)n3CC2)n1 | 595 |
| COC[C@@H]1CN(S(=O)(=O)C(C)C)C[C@H]1c1ccccn1 | 619 |
| Cc1cc(=O)n(CC(=O)Nc2ccc(Cl)cc2)c(N2CCc3ccccc3C2)n1 | 855 |
| CCc1nc(-c2csc(S(=O)(=O)N3CCC(C(=O)Nc4cccc(C#N)c4)CC3)c2)no1 | 966 |
| COc1cc2c(cc1OC)C(C(=O)N(C)c1ccc(Cl)cc1)C(c1cccnc1)N(C)C2=O (stereo not drawn) | 674 |

| SMILES | RP-LC retention time [s] |
| --- | --- |
| Cn1cc(C(=O)NCCCc2ccccc2)c(S(=O)(=O)N2CCSCC2)n1 | 944 |
| COc1ccc(CC(=O)Nc2cnn(-c3ncc(N(C)C)cn3)c2)c(Cl)c1 | 753 |
| O=C(CCCn1c(=O)c2cccn2c2ccccc21)NCc1ccccn1 | 621 |
| Cc1cc(N2CCCC2)n2nc(-c3ccccc3C)nc2n1 | 729 |
| CCn1c(=O)n(CC)c2cc(N3CCCC3)c(NC(=O)NCc3cccc(F)c3)cc21 | 654 |
| CCn1ccc(C(=O)N2CCC(c3noc(-c4ccncc4)n3)C2)n1 (stereo not drawn) | 665 |
| CC(C)OCCCNC(=O)c1cc2c(n(-c3ccc(F)cc3)c1=O)CCCC2=O | 794 |
| COC1CCC12CCN(C(=O)c1ccc(Cc3c(C)noc3C)o1)CC2 (stereo not drawn) | 800 |
| COc1cc(OC)cc(C(=O)N2CCC3(CC2)NC(=O)c2ccc(F)cc2N3C)c1 | 734 |
| O=C(CN1CCC(COCc2ccccc2)CC1)NCc1ccco1 | 571 |
| Cc1sc(-c2cc(C(F)(F)F)[nH]n2)cc1S(=O)(=O)N1CCN(c2ccccc2F)CC1 | 1170 |
| CSc1ccc(-c2noc(Cn3c(=O)n(-c4cccc(C)c4)c(=O)c4sccc43)n2)cc1 | 1070 |
| Cc1ccc(-c2nc3ccccc3[nH]2)cc1NC(=O)c1ccco1 | 625 |
| O=C(Nc1nnc(Cc2ccccc2)s1)C1CC(=O)N(c2n[nH]c3cccc(F)c23)C1 (stereo not drawn) | 745 |
| CCc1ccc(C(=O)c2cnc3cc4c(cc3c2N2CCN(CC)CC2)OCO4)cc1 | 608 |
| COc1cc(C(=O)N2CCN(c3cc(-c4ccc(Cl)cc4)[nH]n3)CC2)cc(OC)c1OC | 827 |
| COc1ccc(C2C(C(=O)NCCN(C)C)c3cc(OC)c(OC)cc3C(=O)N2C)cc1 (stereo not drawn) | 597 |
| CCC(=O)N1CCCN(C2=NS(=O)(=O)C(c3ccccc3)=C2C)CC1 | 694 |
| O=C(C1CCN(c2nc3ccc(-c4ccc(F)cc4)nc3s2)CC1)N1CCCC1 | 944 |

Continued, values first:

| RP-LC retention time [s] | SMILES |
| --- | --- |
| 1090 | Cc1ccc(CNC(=O)C2CCCN(c3nccnc3Sc3ccc(C)cc3)C2)cc1 (stereo not drawn) |
| 921 | COc1cccc(NC(=O)C2CCCN(c3nc4ccsc4c(=O)n3-c3cccc(OC)c3)C2)c1 (stereo not drawn) |
| 666 | CNC(=O)C1CCCN(c2nc3ncn(CC(=O)NCc4ccc(Cl)cc4)c(=O)c3s2)C1 (stereo not drawn) |
| 752 | O=C(CCc1c(-c2ccc(F)cc2)nc2ccccn12)Nc1cccc(C(F)(F)F)c1 |
| 892 | CCCc1cnc2c(c1SCC(=O)N(CC)CC)c(=O)n(C)c(=O)n2C |
| 835 | Cc1ccc(NC(=O)Cn2c(C)cc(-c3nnc(C)o3)c2C)c(Cl)c1 |
| 730 | CC(C)C(=O)NCc1csc(C2CCCN(C(=O)c3cc(F)ccc3F)C2)n1 (stereo not drawn) |
| 1090 | Cc1ccc(-c2csc3c(=O)n(CC(=O)OC(C)(C)C)cnc23)cc1 |
| 982 | O=C(c1cccn1Cc1noc(C2CC2)n1)N1CCc2ccccc21 |
| 627 | Nc1nc(N2CCN(C3CCCCC3)CC2)ncc1C(=O)NCc1ccccc1 |
| 728 | CCC(=O)N1CCc2cc(N3CC(C(=O)NC4CCCCC4)CC3=O)ccc21 (stereo not drawn) |
| 690 | CCCn1cnc2cc(CNC(=O)c3cccc(C(F)(F)F)c3)ccc21 |
| 692 | Cc1csc(NC(=O)CSc2nnc(NC(=O)c3cc(C)on3)s2)n1 |
| 637 | CN1C(=O)CSc2cnn(CC(=O)NC3CCCC3)c(=O)c21 |
| 673 | CN1C(=O)c2cccn2CC1C(=O)Nc1ccccc1F (stereo not drawn) |
| 816 | COCc1cc(=O)n(CCc2ccccc2)c(N2CCCC2)n1 |
| 847 | COc1ccccc1OC(C)C(=O)N(Cc1ccc(C)o1)C1CCS(=O)(=O)C1 (stereo not drawn) |
| 783 | COc1ccc(-c2cn3c(CC(=O)Nc4nc5ccc(C)cc5s4)csc3n2)cc1OC |
| 921 | CCCC(=O)NCCc1csc(-c2ccc(Cl)cc2)n1 |
| 588 | CN1CCN(C(=O)c2ccc(-c3ccc(Br)cc3)o2)CC1 |
| 1150 | COc1ccc(-c2nnc(-c3ccccc3Cl)o2)cc1S(=O)(=O)N1CCC(C)CC1 |
| 894 | CCC(C)NC(=O)CCCn1c(=O)c2cccn2c2ccc(Br)cc21 (stereo not drawn) |
| 665 | CC(C)(C)NS(=O)(=O)CCNC(=O)c1ccccc1 |
| 740 | COc1cccc(S(=O)(=O)N2CCOCCNC(=O)[C@@H]3CCC[C@@H]32)c1 |
| 642 | COc1ccc(OC)c(NC(=O)N2CCN(CCn3c(C(F)(F)F)nc4cccnc43)CC2)c1 |
| 870 | Cc1ccc(-n2c(-c3ccc(Cl)cc3)cn3c4c(=O)n(C)c(=O)n(C)c4nc23)cc1N |
| 840 | O=C1CCc2cc(S(=O)(=O)NCCc3ccccc3)cc3c2N1CCC3 |
